Measured values taken from ChEMBL document CHEMBL4406886, “Discovery of arylamide-5-anilinoquinazoline-8-nitro derivatives as VEGFR-2 kinase inhibitors: Synthesis, in vitro biological evaluation and molecular docking” (Bioorg Med Chem Lett, 2019).
The source made the active and inactive calls. The calls are words filed in the database; no cut-off is given here.

Key:
[1] = molecular target: T1, Vascular endothelial growth factor receptor 2 (Homo sapiens, UniProt P35968); details: at 1 µM
Description: Inhibition of VEGFR2 (unknown origin) at 1 uM using poly (Glu,Tyr) 4:1 as substrate measured after 1 hr in presence of ATP by spectrophotometric analysis relative to control

[2] = molecular target: Epidermal growth factor receptor (Homo sapiens) (UniProt P00533); assay: Inhibition of EGFR (unknown origin) at 1 uM using poly (Glu,Tyr) 4:1 as substrate measured after 1 hr in presence of ATP by spectrophotometric analysis relative to control
MDA-MB-231 = assay: Antiproliferative activity against human MDA-MB-231 cells expressing EGFR assessed as cell growth inhibition measured after 48 hrs by MTT assay; format: functional, cell-based; details: MDA-MB-231, 48 h
HUVEC = assay: Antiproliferative activity against human HUVEC cells expressing VEGFR2 assessed as cell growth inhibition measured after 48 hrs by MTT assay; format: functional, cell-based
HepG2 [3] = assay: Antiproliferative activity against human HepG2 cells expressing VEGFR2 assessed as cell growth inhibition measured after 48 hrs by MTT assay; format: functional, cell-based; details: HepG2, 48 h
A549 = assay: Antiproliferative activity against human A549 cells expressing EGFR assessed as cell growth inhibition measured after 48 hrs by MTT assay; format: functional, cell-based; details: A549, 48 h
[4] = molecular target: T1, Vascular endothelial growth factor receptor 2; assay: Inhibition of VEGFR2 (unknown origin) using poly (Glu,Tyr) 4:1 as substrate measured after 1 hr in presence of ATP by spectrophotometric analysis
L02 = assay: Cytotoxicity against human LO2 cells; format: cell-based
Chorioallantoic membrane = assay: Antiangiogenic activity in chicken fertilized egg chorioallantoic membrane assessed as decrease in blood vessel growth at 10 nM measured after 48 hrs by microscopic analysis; format: functional, tissue-based; details: Gallus gallus
HepG2 [5] = assay: Induction of apoptosis in human HepG2 cells assessed as apoptotic cells at 10 nM measured after 6 to 24 hrs by dUTP-FITC/propidium iodide staining based flow cytometry analysis (reference value: 2.6 %); format: functional
HepG2 [6] = assay: Cell cycle arrest in human HepG2 cells assessed as accumulation at S phase at 10 nM measured after 6 hrs by propidium iodide staining based flow cytometry analysis (reference value: 0 %); format: functional
[7] = Solubility of compound; format: physicochemical
HepG2 [8] = assay: Cell cycle arrest in human HepG2 cells assessed as accumulation at G1 phase at 1 nM measured after 6 hrs by propidium iodide staining based flow cytometry analysis (reference value: 47.9 %); format: functional
HepG2 [9] = assay: Cell cycle arrest in human HepG2 cells assessed as accumulation at G1 phase at 10 nM measured after 6 hrs by propidium iodide staining based flow cytometry analysis (reference value: 47.9 %); format: functional
HepG2 [10] = assay: Cell cycle arrest in human HepG2 cells assessed as accumulation at G0/G1 phase measured after 6 hrs by propidium iodide staining based flow cytometry analysis; format: functional
HepG2 [11] = assay: Cell cycle arrest in human HepG2 cells assessed as accumulation at G2 phase at 10 nM measured after 6 hrs by propidium iodide staining based flow cytometry analysis (reference value: 52.1 %); format: functional
HepG2 [12] = assay: Induction of apoptosis in human HepG2 cells assessed as apoptotic cells at 1 nM measured after 6 to 24 hrs by dUTP-FITC/propidium iodide staining based flow cytometry analysis (reference value: 2.6 %); format: functional
HepG2 [13] = assay: Induction of apoptosis in human HepG2 cells assessed as necrotic cells at 1 nM measured after 24 hrs by dUTP-FITC/propidium iodide staining based flow cytometry analysis (reference value: 0.2 %)
HepG2 [14] = assay: Induction of apoptosis in human HepG2 cells assessed as necrotic cells at 10 nM measured after 24 hrs by dUTP-FITC/propidium iodide staining based flow cytometry analysis (reference value: 0.2 %)
HepG2 [15] = assay: Cell cycle arrest in human HepG2 cells assessed as accumulation at G2 phase at 1 nM measured after 6 hrs by propidium iodide staining based flow cytometry analysis (reference value: 52.1 %); format: functional
HepG2 [16] = assay: Cell cycle arrest in human HepG2 cells assessed as accumulation at S phase at 1 nM measured after 6 hrs by propidium iodide staining based flow cytometry analysis (reference value: 0 %); format: functional

T1 sequence (P35968 whole entry): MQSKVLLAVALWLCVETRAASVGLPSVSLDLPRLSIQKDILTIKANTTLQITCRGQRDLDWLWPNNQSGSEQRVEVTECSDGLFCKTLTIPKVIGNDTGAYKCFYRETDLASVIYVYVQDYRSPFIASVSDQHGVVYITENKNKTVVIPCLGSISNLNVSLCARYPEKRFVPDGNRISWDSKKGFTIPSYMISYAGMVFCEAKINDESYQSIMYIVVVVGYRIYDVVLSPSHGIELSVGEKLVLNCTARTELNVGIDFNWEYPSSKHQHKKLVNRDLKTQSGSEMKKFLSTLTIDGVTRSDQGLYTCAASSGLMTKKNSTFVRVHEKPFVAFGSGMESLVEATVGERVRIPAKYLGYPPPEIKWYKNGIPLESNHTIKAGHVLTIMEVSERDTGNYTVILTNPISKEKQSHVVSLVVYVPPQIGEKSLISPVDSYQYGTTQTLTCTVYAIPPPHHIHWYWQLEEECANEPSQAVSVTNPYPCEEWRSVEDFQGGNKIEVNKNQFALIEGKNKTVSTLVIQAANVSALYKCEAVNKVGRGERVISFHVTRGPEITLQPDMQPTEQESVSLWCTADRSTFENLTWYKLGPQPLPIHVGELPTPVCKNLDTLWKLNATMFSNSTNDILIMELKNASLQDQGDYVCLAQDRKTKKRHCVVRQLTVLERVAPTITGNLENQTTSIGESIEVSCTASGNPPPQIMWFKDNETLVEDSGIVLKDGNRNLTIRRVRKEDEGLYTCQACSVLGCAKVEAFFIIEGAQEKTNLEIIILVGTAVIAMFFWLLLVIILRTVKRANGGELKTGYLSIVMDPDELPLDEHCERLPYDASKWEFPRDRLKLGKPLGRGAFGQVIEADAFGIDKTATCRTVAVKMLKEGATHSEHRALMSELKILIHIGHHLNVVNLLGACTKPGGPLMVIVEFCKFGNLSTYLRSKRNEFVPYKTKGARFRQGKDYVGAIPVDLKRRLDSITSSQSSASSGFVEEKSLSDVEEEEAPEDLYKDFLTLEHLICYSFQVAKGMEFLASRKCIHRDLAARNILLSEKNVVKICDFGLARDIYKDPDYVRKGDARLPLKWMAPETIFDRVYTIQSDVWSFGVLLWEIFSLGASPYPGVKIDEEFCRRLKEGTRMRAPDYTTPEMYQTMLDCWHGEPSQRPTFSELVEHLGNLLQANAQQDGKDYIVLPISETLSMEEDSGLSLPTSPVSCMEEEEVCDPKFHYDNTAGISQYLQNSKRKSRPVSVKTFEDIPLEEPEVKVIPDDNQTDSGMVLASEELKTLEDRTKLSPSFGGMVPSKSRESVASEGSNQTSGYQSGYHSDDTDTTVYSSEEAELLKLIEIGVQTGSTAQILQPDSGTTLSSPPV
Sequence of Epidermal growth factor receptor (Homo sapiens) (P00533 whole entry): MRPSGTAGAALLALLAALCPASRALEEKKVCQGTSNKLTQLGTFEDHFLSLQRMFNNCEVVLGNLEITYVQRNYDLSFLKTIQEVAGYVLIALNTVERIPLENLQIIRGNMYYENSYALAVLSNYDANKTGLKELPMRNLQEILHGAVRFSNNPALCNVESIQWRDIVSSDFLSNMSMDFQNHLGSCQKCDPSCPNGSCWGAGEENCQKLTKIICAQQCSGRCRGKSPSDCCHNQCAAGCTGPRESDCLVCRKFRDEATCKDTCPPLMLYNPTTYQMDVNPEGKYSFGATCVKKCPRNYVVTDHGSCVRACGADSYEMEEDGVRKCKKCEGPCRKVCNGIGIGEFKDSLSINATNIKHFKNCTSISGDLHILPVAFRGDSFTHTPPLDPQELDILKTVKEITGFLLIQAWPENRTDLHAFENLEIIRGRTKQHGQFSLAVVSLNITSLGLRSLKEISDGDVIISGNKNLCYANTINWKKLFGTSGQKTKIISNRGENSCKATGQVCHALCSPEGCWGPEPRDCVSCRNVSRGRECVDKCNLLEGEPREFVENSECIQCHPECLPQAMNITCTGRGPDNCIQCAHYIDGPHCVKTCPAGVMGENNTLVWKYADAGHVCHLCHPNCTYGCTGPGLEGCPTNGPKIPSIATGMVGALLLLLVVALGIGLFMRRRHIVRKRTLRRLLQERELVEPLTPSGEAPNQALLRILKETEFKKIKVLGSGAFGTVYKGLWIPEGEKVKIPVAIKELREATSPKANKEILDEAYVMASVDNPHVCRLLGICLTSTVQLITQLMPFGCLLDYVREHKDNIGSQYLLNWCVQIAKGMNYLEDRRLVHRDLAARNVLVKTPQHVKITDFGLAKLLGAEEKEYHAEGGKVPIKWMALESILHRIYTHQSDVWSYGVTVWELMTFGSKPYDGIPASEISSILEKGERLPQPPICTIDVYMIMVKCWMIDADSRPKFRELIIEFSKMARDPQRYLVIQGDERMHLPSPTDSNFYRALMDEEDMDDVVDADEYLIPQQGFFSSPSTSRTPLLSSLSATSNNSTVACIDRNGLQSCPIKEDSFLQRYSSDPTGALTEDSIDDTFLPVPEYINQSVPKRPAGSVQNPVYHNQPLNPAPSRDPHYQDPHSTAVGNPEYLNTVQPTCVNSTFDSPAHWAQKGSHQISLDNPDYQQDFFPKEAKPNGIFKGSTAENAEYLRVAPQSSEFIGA

| Compound | inhibition [1] | inhibition [2] | IC50 (MDA-MB-231) | IC50 (HUVEC) | IC50 (HepG2 [3]) | IC50 (A549) | IC50 (L02) | Activity (Chorioallantoic membrane) | further results |
| --- | --- | --- | --- | --- | --- | --- | --- | --- | --- |
| COc1ccccc1C(=O)Nc1ccc(Nc2ccc([N+](=O)[O-])c3ncnc(O)c23)cc1 | 60.3% | 43.6% | 95.8 µM | 36.3 µM | 40.7 µM | > 100 µM | – | – | – |
| COc1ccccc1C(=O)Nc1cccc(Nc2ccc([N+](=O)[O-])c3ncnc(O)c23)c1 | 26.9% | 12.4% | > 100 µM | 82 µM | 90.3 µM | > 100 µM | – | – | – |
| O=C(Nc1ccc(Nc2ccc([N+](=O)[O-])c3ncnc(O)c23)cc1)c1ccc(Cl)cc1 | 97.9% | 64.1% | 95.1 µM | 1.6 µM | 0.9 µM | 83 µM | 73.5 µM | Active | IC50 [4]: 0.363 µM |
| O=C(Nc1ccc(Nc2ccc([N+](=O)[O-])c3ncnc(O)c23)cc1)c1ccccc1Cl | 76.9% | 50.3% | 96.1 µM | 26.5 µM | 28 µM | 90.3 µM | – | Active | – |
| O=C(Nc1cccc(Nc2ccc([N+](=O)[O-])c3ncnc(O)c23)c1)c1ccccc1 | 37.8% | 15.4% | > 100 µM | 79.1 µM | 75.2 µM | > 100 µM | – | – | – |
| CNC(=O)c1cc(Oc2ccc(NC(=O)Nc3ccc(Cl)c(C(F)(F)F)c3)cc2)ccn1 [SORAFENIB] | – | – | 15.8 µM | 4.1 µM | 3.6 µM | 8.1 µM | 72.9 µM | Active | – |
| O=C(Nc1cccc(Nc2ccc([N+](=O)[O-])c3ncnc(O)c23)c1)c1ccccc1F | 35.8% | 17.2% | > 100 µM | 70.4 µM | 69.6 µM | > 100 µM | – | – | – |
| O=C(Nc1cccc(Nc2ccc([N+](=O)[O-])c3ncnc(O)c23)c1)c1ccccc1Cl | 30.1% | 22.5% | > 100 µM | 74.6 µM | 71.9 µM | > 100 µM | – | – | – |
| Cc1ccc(C(=O)Nc2ccc(CN3CCN(C)CC3)c(C(F)(F)F)c2)cc1C#Cc1cnc2cccnn12 [PONATINIB] | – | – | 10.5 µM | 0.5 µM | 0.6 µM | 5.3 µM | 64.7 µM | – | – |
| O=C(Nc1ccc(Nc2ccc([N+](=O)[O-])c3ncnc(O)c23)cc1)c1ccc(F)cc1 | 102% | 69.2% | 58.4 µM | 0.5 µM | 0.2 µM | 69 µM | 63.2 µM | Active | Activity (HepG2 [5]): 72.2%; Activity (HepG2 [6]): 34%; solubility [7]: Soluble; Activity (HepG2 [8]): 52.6%; IC50 [4]: 0.0648 µM; Activity (HepG2 [9]): 41.7%; Activity (HepG2 [10]): Dose-dependent effect; Activity (HepG2 [11]): 24.3%; Activity (HepG2 [12]): 34.3%; Activity (HepG2 [13]): 2.5%; Activity (HepG2 [14]): 2.1%; Activity (HepG2 [15]): 35.9%; Activity (HepG2 [16]): 11.5% |
| O=C(Nc1ccc(Nc2ccc([N+](=O)[O-])c3ncnc(O)c23)cc1)Nc1cc(C(F)(F)F)ccc1Cl | 102% | 21.8% | > 100 µM | 2.1 µM | 13.7 µM | > 100 µM | 84.2 µM | – | IC50 [4]: 0.0154 µM |
| O=C(Nc1ccc(Nc2ccc([N+](=O)[O-])c3ncnc(O)c23)cc1)c1cccc(Cl)c1 | 63.2% | 27.7% | > 100 µM | 36.7 µM | 42 µM | > 100 µM | – | Active | – |
| O=C(Nc1cccc(Nc2ccc([N+](=O)[O-])c3ncnc(O)c23)c1)c1cccc(Cl)c1 | 29.2% | 26.3% | > 100 µM | 86.5 µM | 93 µM | > 100 µM | – | – | – |
